# Source: patent US7851006B2, “Taste potentiator compositions and beverages containing same” (Cadbury Adams USA LLC, priority 2005, dated 2010)
# Assays:
# [1] = tested on: perceived sweetness of pH 3.2 buffered sucrose solution (expert panel members); test: Sucrose Equivalent Value (SEV): expert panel matches test solution to stock sucrose solutions; format: in vivo; conditions: for effect on sweetness of the sucrose solution (dose response curve): 0 to 1000 ppm in pH 3.2 buffered 5% sucrose solution; for sweetness enhancement of sucrose solutions by different forms of 2,4-DHB: 500 ppm in pH 3.2 buffered 0%, 3%, 5%, 7% and 9% sucrose; for SEV (%): 500 ppm potentiator in pH 3.2 buffered solution containing 5% sucrose
# Procedure: (§1) One method of measuring the perceived sweetness of a solution is to match it with a stock sucrose solution of known concentration. In the present experiments, the compound of interest is added at a predetermined concentration to a pH 3.2 buffered solution containing 5% sucrose. A number of expert panel members then taste the solution and compare it to a battery of stock sucrose solutions ranging from 3% to 15% at increments of 1%. Each panel member decides which sucrose solution is equisweet with the solution containing the compound of interest. The mean value is then reported as the SEV. Results are reported to 1 decimal place.
# In accordance with this methodology, 3-HB was added to a pH 3.2 buffered solution containing 5% sucrose to produce solutions containing from 0 to 1000 ppm 3-HB in 100 ppm increments. […] From FIG. 1 it is apparent that as the dosage of 3-HB increases so does the sweetness of the resultant solution. However the effect is non-linear with each incremental addition having a diminishing effect. The maximum sweetness attainable would appear to be about 7.9% SEV (based on a 5% sucrose solution).
# The same methodology as described in Example 1 was repeated with 2,4-DHB in place of 3-HB, to produce the dose response curve for 2,4-DHB (FIG. 2). […] The maximum attainable sweetness would appear to be about 6.7% SEV (based on a 5% sucrose solution).
# 500 ppm of a sweetener potentiator was added to a pH 3.2 buffered solution containing 5% sucrose and the SEV of the resultant solution determined.
# 500 ppm of the sweetener potentiator then was added to a 5% sucrose solution containing 500 ppm 3-HB to produce a series of solutions. […] The use of 500 ppm of 3-HB alone results in an SEV of 6.9% whereas in all cases but two (2,4-DHB and 3,4-DHB) the addition of a second sweetener potentiator results in a little change or even a decrease in SEV. This is highly surprising considering that all of the potentiators are shown to have SEVs greater than 5%.
# The methodology was repeated to produce a series of solutions containing 500 ppm 2,4-DHB and 500 ppm of a second sweetener potentiator.
# 500 ppm of 3-HB, 500 ppm of 2,4-DHB and 500 ppm of 3,4-dihydroxybenzoic acid (3,4-DHB) were added to a pH 3.2 buffered solution containing 5% sucrose and the SEV determined. The results are shown in FIG. 7 together with other combinations of 3-HB, 2,4-DHB and 3,4-DHB for comparison. The solution containing the combination of 3-HB and 2,4-DHB (hatched) has a much higher SEV (8.7%) than the combination of either 3,4-DHB and 3-HB (7.6%) or the combination of 3,4-DHB and 2,4-DHB (6.8%). The three-way combination of the embodiment (hatched) is better still with an SEV of 9.8%.
# pH 3.2 buffered solutions were prepared containing 0%, 3%, 5%, 7% and 9% sucrose. 500 ppm of 2,4-DHB acid, 500 ppm of the sodium salt of 2,4-DHB and 500 ppm of the potassium salt of 2,4-DHB were added individually to each of the sucrose solutions. The SEV for each of the solutions was then determined.
# 500 ppm of 3-aminobenzoic acid and 500 ppm of 4-aminobenzoic acid were individually added to separate pH 3.2 buffered solutions containing 5% sucrose and the SEVs of the resultant solutions were determined. The SEV of 3-aminobenzoic acid was about 7%, i.e., increased the sweetness intensity of 5% sucrose to about 7%. The SEV of 4-aminobenzoic acid was about 5.5-6%, i.e., increased the sweetness intensity of 5% sucrose to about 5.5-6%.
# [2] = tested on: sweetness perception of sweeteners; conditions: cited from earlier work
# [3] = tested on: perceived sweetness of non-sucrose sweetener solutions (SEV about 5%); test: SEV of non-sucrose sweetener solutions after addition of potentiators; format: in vivo; conditions: 500 ppm 3-HB alone versus with 500 ppm 2,4-DHB, pH 3.2
# Procedure: as §1
# The SEV of each sweetener solution was then evaluated after the addition 500 ppm of 3-HB, the addition of 500 ppm of 2,4-DHB and the addition of both 500 ppm 3-HB and 2,4-DHB.
smiles,measurement,setting,value
"O=C(O)c1ccc(O)cc1O [2,4-dihydroxybenzoic acid (2,4-DHB), 2,4-dihydroxybenzoic acid]",effect on sweetness of the sucrose solution (dose response curve),[1],enhances the sweetness of the sucrose solution
same,"sweetness enhancement of sucrose solutions by different forms of 2,4-DHB",[1],enhances the sweetness of the sucrose solution in every case
same,effect on sweetness intensity of sucralose and aspartame,"[2]; FIGS. 1 and 2, Tables 1 and 2 of US 6,461,658",slightly inhibitory effect
same,listed taste character,"[2]; US 5,232,735",substantially tasteless sweetness inhibitor
same,effect on sweetness delivery profile of sucralose,"[2]; US 6,461,658",significantly reducing the length of time during which sucralose sweetness is perceived
same,effect on sweetness delivery profile of aspartame,"[2]; US 6,461,658, compared with effect on sucralose",The same effect is not observed for aspartame
same,effect on sweetness of aspartame,[2]; WO99/15032,increase sweetness synergistically
same,"effect with alitame, Ace-K, saccharin or a mixture of aspartame and Ace-K","[2]; WO99/15032, compared with effect on aspartame",same effect is not observed
same,effect on sweetness of 5% sucrose solution,"[2]; addition of 0.2% 2,4-DHB, Canadian Patent No. 1208966",increase in sweetness
"O=C(O)c1cc(O)c(O)c(O)c1 [3,4,5-tryhydroxybenzoic acid (3,4,5-THB), 3,4,5-tryhydroxybenzoic acid]",SEV (%),[1],5.1%
"O=C(O)c1ccc(O)c(O)c1 [3,4-dihydroxybenzoic acid (3,4-DHB), 3,4-dihydroxybenzoic acid]",SEV (%),[1],6.4%
"O=C(O)c1cccc(O)c1 [3-hydroxybenzoic acid (3-HB), 3-hydroxybenzoic acid]",effect on sweetness of the sucrose solution (dose response curve),[1],enhances the sweetness of the sucrose solution
same,"SEV of solution containing 500 ppm 2,4-DHB and 500 ppm of a second sweetener potentiator","[1]; second potentiator 500 ppm added to 500 ppm 2,4-DHB, 5% sucrose",significant positive effect
same,"sweetness enhancement of saccharin solution, alone versus combination",[3],"enhances the sweetness to a greater degree alone than in combination with 2,4-DHB"
same,"effect on sweetness of sucrose, aspartame and saccharin","[2]; pH 2.0 to 5.5, EP 0132444 and US 4,627,987",enhance sweetness
"O=C([O-])c1ccc(O)cc1O.[K+] [potassium salt of 2,4-DHB]","sweetness enhancement of sucrose solutions by different forms of 2,4-DHB",[1],enhances the sweetness of the sucrose solution in every case
"O=C([O-])c1ccc(O)cc1O.[Na+] [sodium salt of 2,4-DHB]","sweetness enhancement of sucrose solutions by different forms of 2,4-DHB",[1],enhances the sweetness of the sucrose solution in every case
